# Molecular target: T1, human neprilysin (EC 3.4.24.11; NEP) (Homo sapiens, UniProt P08473)
# T1 construct: purchased R&D Systems, Minneapolis, Minn; 1182-ZN
# Experiment: In vitro enzyme inhibition assay at human NEP (fluorogenic peptide substrate)
# Assay type: biochemical
# Conditions: recombinant human NEP; 37° C.; substrate Mca-D-Arg-Arg-Leu-Dap-(Dnp)-OH 10 μM; values given as ranges; read-out: pKi values at human NEP (converted)
# Summary of the method: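 Recombinant human NEP pre-incubated 30 min at 37 °C with compound (10 μM to 20 pM), then cleaved 20 min at 37 °C with 10 μM Mca-D-Arg-Arg-Leu-Dap-(Dnp)-OH in HEPES pH 7.5, NaCl, Tween-20, 10 μM ZnSO4. Stopped with acetic acid; fluorescence Ex 320/Em 405 nm; apparent Ki from v=v0/[1+(I/K′)] fit, reported as pKi.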
# T1 sequence (P08473 52-750 limits assumed): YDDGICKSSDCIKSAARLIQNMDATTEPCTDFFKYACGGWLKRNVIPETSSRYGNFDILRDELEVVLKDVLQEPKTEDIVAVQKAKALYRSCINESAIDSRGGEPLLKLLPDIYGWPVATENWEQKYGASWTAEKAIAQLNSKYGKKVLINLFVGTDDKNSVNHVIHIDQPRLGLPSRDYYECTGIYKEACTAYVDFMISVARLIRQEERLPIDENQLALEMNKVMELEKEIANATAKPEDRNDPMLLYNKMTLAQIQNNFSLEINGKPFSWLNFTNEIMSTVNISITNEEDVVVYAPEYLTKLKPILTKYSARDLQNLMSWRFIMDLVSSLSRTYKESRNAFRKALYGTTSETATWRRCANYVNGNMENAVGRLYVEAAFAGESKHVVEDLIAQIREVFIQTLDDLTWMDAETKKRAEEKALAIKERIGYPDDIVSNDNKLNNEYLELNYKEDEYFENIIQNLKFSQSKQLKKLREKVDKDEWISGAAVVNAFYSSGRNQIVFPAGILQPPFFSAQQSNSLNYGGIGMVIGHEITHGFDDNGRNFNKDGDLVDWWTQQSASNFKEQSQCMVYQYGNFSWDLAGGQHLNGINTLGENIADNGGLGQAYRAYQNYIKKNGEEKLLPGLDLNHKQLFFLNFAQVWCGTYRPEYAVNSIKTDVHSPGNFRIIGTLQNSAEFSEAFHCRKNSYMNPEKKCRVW
row,SMILES,Ki [µM]
1,"Cc1cc(C(=O)N[C@H](Cc2ccccc2)[C@@H](O)C(=O)O)cc(C)c1F [Example 10-82, (2R,3R)-3-(4-Fluoro-3,5-dimethyl-benzoylamino)-2-hydroxy-4-phenyl-butyric acid]",0.0126 to 0.1
2,"O=C(O)C[C@@H](Cc1ccccc1Cl)NC(=O)CCCc1ccccc1C(=O)O [Example 11, 2-{3-[(R)-1-Carboxymethyl-2-(2-chlorophenyl)-ethylcarbamoyl]-propyl}-benzoic Acid]",0.00126 to 0.01
3,"Cc1ccc(C(=O)N[C@@H](CC(=O)O)Cc2ccccc2Cl)cc1-c1ccccc1C(=O)O [Example 12, 5′-[(R)-2-Carboxy-1-(2-chloro-benzyl)-ethylcarbamoyl]-2′-methyl-biphenyl-2-carboxylic Acid]",0.00126 to 0.01
4,"O=C(O)Cc1ccccc1-c1cccc(C(=O)N[C@@H](CC(=O)O)Cc2ccccc2Cl)c1 [Example 13-1, (R)-3-[(2′-Carboxymethyl-biphenyl-3-carbonyl)-amino]-4-(2-chloro-phenyl)-butyric acid]",0.0126 to 0.1
5,"O=C(O)C[C@@H](Cc1ccccc1Cl)NC(=O)c1cccc(-c2ccccc2C(=O)O)c1 [Example 13-2, 3′-[(R)-2-Carboxy-1-(2-chloro-benzyl)-ethylcarbamoyl]-biphenyl-2-carboxylic acid]",0.00126 to 0.01
6,"Cc1ccc(C(=O)N[C@@H](CC(=O)O)Cc2ccccc2Cl)cc1-c1ccccc1CC(=O)O [Example 13-3, (R)-3-[(2′-Carboxymethyl-6-methyl-biphenyl-3-carbonyl)-amino]-4-(2-chloro-phenyl)-butyric acid]",0.00126 to 0.01
7,"O=C(O)Cc1ccccc1-c1ccc(C(=O)N[C@@H](CC(=O)O)Cc2ccccc2Cl)cc1 [Example 13-4, (R)-3-[(2′-Carboxymethyl-biphenyl-4-carbonyl)-amino]-4-(2-chloro-phenyl)-butyric acid]",0.0126 to 0.1
8,"CC1=NN(c2ccc(C(=O)N[C@@H](CC(=O)O)Cc3ccccc3Cl)cc2Cl)C(=O)C1 [Example 13-5, (R)-3-[3-Chloro-4-(3-methyl-5-oxo-4,5-dihydro-pyrazol-1-yl)-benzoylamino]-4-(2-chloro-phenyl)-butyric acid]",0.0126 to 0.1
9,"CC1=NN(c2ccc(C(=O)N[C@@H](CC(=O)O)Cc3ccccc3Cl)cc2)C(=O)C1 [Example 13-6, (R)-4-(2-Chlorophenyl)-3-[4-(3-methyl-5-oxo-4,5-dihydro-pyrazol-1-yl)-benzoylamino]-butyric acid]",0.0126 to 0.1
10,"CC1=NN(c2cccc(C(=O)N[C@@H](CC(=O)O)Cc3ccccc3Cl)c2)C(=O)C1 [Example 13-8, (R)-4-(2-Chlorophenyl)-3-[3-(3-methyl-5-oxo-4,5-dihydro-pyrazol-1-yl)-benzoylamino]-butyric acid]",0.0126 to 0.1
11,"CCCC1=NN(c2cccc(C(=O)N[C@@H](CC(=O)O)Cc3ccccc3Cl)c2)C(=O)C1 [Example 13-9, (R)-4-(2-Chlorophenyl)-3-[3-(5-oxo-3-propyl-4,5-dihydro-pyrazol-1-yl)-benzoylamino]-butyric acid]",0.0126 to 0.1
12,"CCc1ccc(C(=O)N[C@@H](CC(=O)O)Cc2ccccc2Cl)cc1-n1c(=O)[nH]c2sc(C)cc2c1=O [Example 13-10, (R)-4-(2-Chlorophenyl)-3-[4-ethyl-3-(6-methyl-2,4-dioxo-1,4-dihydro-2H-thieno[2,3-d]pyrimidin-3-yl)-benzoylamino]-butyric acid]",0.0126 to 0.1
13,"Cc1ccc(C(=O)N[C@@H](CC(=O)O)Cc2ccccc2C(F)(F)F)cc1-c1ccccc1C(=O)O [Example 14, 5′-[(R)-2-Carboxy-1-(2-trifluoromethyl-benzyl)-ethylcarbamoyl]-2′-methyl-biphenyl-2-carboxylic Acid]",0.00126 to 0.01
